Source: article PMC5459446, “A phase I study of single-agent perifosine for recurrent or refractory pediatric CNS and solid tumors” (PLoS ONE, 2017)
Values joined by “and” are separate entries in the source; they are usually repeats but may differ in a detail not shown here. Equal entries are not always repeated. Structures can show the parent of a compound that is named as a salt.

Tests used:
[1] = tested on: pediatric patients with recurrent or refractory CNS and solid tumors; experiment: Phase I dose-escalation toxicity assessment (Common Toxicity Criteria v3.0, DLT, MTD); format: in vivo
Procedure: This was a standard 3+3 phase I dose escalation study (NCT00776867) investigating 5 dose levels. Perifosine was only available as 50-mg tablets, complicating the phase I dose escalation scheme. A loading dose was administered on day 1 and subsequent maintenance doses were administered every 1 to 4 days, depending on dose level and BSA, with the goal of achieving dose levels of 25, 50, 75, 100, and 125 mg/m^2/day (Tables 1–5). This dosing scheme, incorporating drug administration as infrequently as every 4 days, was made possible by perifosine’s long half-life. Treatment was continued until disease progression, intolerable toxicity, DLT, or death was encountered. Subjects experiencing DLT but with evidence of clinical benefit at dose level 1, 2, or 3 were eligible to remain on study with a dose level reduction. […]
Toxicity was assessed according to the Common Toxicity Criteria (version 3.0) of the National Cancer Institute, National Institutes of Health. DLT was defined as (1) any non-hematological toxicity grade ≥ 3 [except for grade 3 nausea, vomiting, and diarrhea that could be controlled within 24 hours with supportive care measures]; (2) grade 4 neutropenia on 2 consecutive blood counts drawn at least 72 hours apart; (3) grade 4 febrile neutropenia [ANC < 1000/μL and fever ≥ 38.5°C] or grade ≥ 3 documented infection with ANC < 1000/μL, or; (4) a platelet count < 25,000/μL. Grade ≥ 3 decrease in hemoglobin that could be corrected to at least 8 g/dl (grade 2) by transfusion of red blood cells, grade ≥ 3 leukopenia in the absence of dose-limiting neutropenia, and grade ≥ 3 lymphopenia were not considered DLTs.
The DLT assessment period was the first 28-day cycle. If therapy was discontinued during the first cycle for reasons other than toxicity, an additional subject could be enrolled at that dose level to ensure adequate evaluation of toxicity. No intra-patient dose escalation was permitted.

[2] = Steady state plasma pharmacokinetics (LC/electrospray MS); format: in vivo, human
Procedure: Samples for pharmacokinetic analysis were obtained at baseline and during weeks 2 through 4 of cycle 1. At each time point, heparinized blood was collected into a plastic vacutainer to minimize adhesion of perifosine. Plasma was separated by centrifugation and stored in polypropylene cryovials at -70°C until assayed. Perifosine in plasma was measured by a validated reversed phase liquid chromatography/electrospray mass spectrometry method as developed and validated by Woo et al..

[3] = tested on: medulloblastoma cell lines; parameters: method as in PMID 19887560, PMID 26269112; details: cited from earlier work
telomerase = tested on: telomerase; parameters: method as in PMID 26307677; details: cited from earlier work
[4] = 23 patients, all dose levels, at least possibly related
[5] = 23 patients, all dose levels, at least possibly related, listed as Perifosine

CCCCCCCCCCCCCCCCCCOP(=O)([O-])OC1CC[N+](C)(C)CC1 [perifosine, 1,1-Dimethyl-4-[[(octadecyloxy)hydroxyphosphinyl]oxy]-piperidinium inner salt]
MTD ([1]; 5 dose levels, 25 to 125 mg/m2/day): not defined | ALT, Any Grade, % [1, 4]: 39.13% | ALT, Any Grade, No. [1, 4]: 9 | ALT, Grade 3 or 4, % [1, 4]: 0.00% | ALT, Grade 3 or 4, No. [1, 4]: 0 | AST, Any Grade, % [1, 4]: 26.09% | AST, Any Grade, No. [1, 4]: 6 | AST, Grade 3 or 4, % [1, 4]: 0.00% | Decreased hemoglobin, Grade 3 or 4, % [1, 4]: 0.00% | Decreased hemoglobin, Grade 3 or 4, No. [1, 4]: 0 | Decreased leukocytes, Any Grade, % [1, 4]: 47.83% | Decreased leukocytes, Any Grade, No. [1, 4]: 11 | Decreased leukocytes, Grade 3 or 4, % [1, 4]: 0.00% | Decreased leukocytes, Grade 3 or 4, No. [1, 4]: 0 | Decreased neutrophils (neutropenia), Grade 3 or 4, % [1, 4]: 8.7% | Decreased neutrophils, Any Grade, % [1, 4]: 26.09% | Decreased neutrophils, Any Grade, No. [1, 4]: 6 | Decreased neutrophils, Grade 3 or 4, No. [1, 4]: 2 | Decreased platelets, Any Grade, % [1, 4]: 21.74% | Decreased platelets, Any Grade, No. [1, 4]: 5 | Decreased platelets, Grade 3 or 4, % [1, 4]: 0.00% | Decreased platelets, Grade 3 or 4, No. [1, 4]: 0 | Diarrhea, Any Grade, % [1, 4]: 43.48% | Diarrhea, Any Grade, No. [1, 4]: 10 | Diarrhea, Grade 3 or 4, % [1, 4]: 0.00% | Diarrhea, Grade 3 or 4, No. [1, 4]: 0 | Fatigue, Any Grade, % [1, 4]: 65.22% | Fatigue, Any Grade, No. [1, 4]: 15 | Fatigue, Grade 3 or 4, % [1, 4]: 4.35% | Fatigue, Grade 3 or 4, No. [1, 4]: 1 | Fever, Any Grade, % [1, 4]: 21.74% | Fever, Any Grade, No. [1, 4]: 5 | Fever, Grade 3 or 4, % [1, 4]: 4.35% | Fever, Grade 3 or 4, No. [1, 4]: 1 | Flatulence, Any Grade, % [1, 4]: 13.04% | Flatulence, Any Grade, No. [1, 4]: 3 | Flatulence, Grade 3 or 4, % [1, 4]: 0.00% | Flatulence, Grade 3 or 4, No. [1, 4]: 0 | Hyperglycemia, Any Grade, % [1, 4]: 60.87% | Hyperglycemia, Any Grade, No. [1, 4]: 14 | Hyperglycemia, Grade 3 or 4, % [1, 4]: 4.35% | Hyperglycemia, Grade 3 or 4, No. [1, 4]: 1 | Hyperuricemia, Any Grade, % [1, 4]: 4.35% | Hyperuricemia, Any Grade, No. [1, 4]: 1 | Hyperuricemia, Grade 3 or 4, % [1, 4]: 4.35% | Hyperuricemia, Grade 3 or 4, No. [1, 4]: 1 | Hypocalcemia, Any Grade, % [1, 4]: 21.74% | Hypocalcemia, Any Grade, No. [1, 4]: 5 | Hypocalcemia, Grade 3 or 4, % [1, 4]: 0.00% | Hypocalcemia, Grade 3 or 4, No. [1, 4]: 0 | Hypokalemia, Any Grade, % [1, 4]: 21.74% | Hypokalemia, Any Grade, No. [1, 4]: 5 | Hypokalemia, Grade 3 or 4, % [1, 4]: 0.00% | Hypokalemia, Grade 3 or 4, No. [1, 4]: 0 | Hypomagnesemia, Any Grade, % [1, 4]: 13.04% | Hypomagnesemia, Any Grade, No. [1, 4]: 3 | Hypomagnesemia, Grade 3 or 4, % [1, 4]: 0.00% | Hypomagnesemia, Grade 3 or 4, No. [1, 4]: 0 | Hyponatremia, Any Grade, % [1, 4]: 21.74% | Hyponatremia, Any Grade, No. [1, 4]: 5 | Hyponatremia, Grade 3 or 4, % [1, 4]: 0.00% | Hyponatremia, Grade 3 or 4, No. [1, 4]: 0 | Hypophosphatemia, Any Grade, % [1, 4]: 13.04% | Hypophosphatemia, Any Grade, No. [1, 4]: 3 | Hypophosphatemia, Grade 3 or 4, % [1, 4]: 0.00% | Hypophosphatemia, Grade 3 or 4, No. [1, 4]: 0 | Infection URI, Any Grade, % [1, 4]: 17.39% | Infection URI, Any Grade, No. [1, 4]: 4 | Infection URI, Grade 3 or 4, % [1, 4]: 0.00% | Infection URI, Grade 3 or 4, No. [1, 4]: 0 | Infection—catheter related, Any Grade, % [1, 4]: 4.35% | Infection—catheter related, Any Grade, No. [1, 4]: 1 | Infection—catheter related, Grade 3 or 4, % [1, 4]: 4.35% | Infection—catheter related, Grade 3 or 4, No. [1, 4]: 1 | Lymphopenia, Any Grade, % [1, 4]: 17.39% | Lymphopenia, Any Grade, No. [1, 4]: 4 | Lymphopenia, Grade 3 or 4, % [1, 4]: 0.00% | Lymphopenia, Grade 3 or 4, No. [1, 4]: 0 | Nausea, Any Grade, % [1, 4]: 65.22% | Nausea, Any Grade, No. [1, 4]: 15 | Nausea, Grade 3 or 4, % [1, 4]: 0.00% | Nausea, Grade 3 or 4, No. [1, 4]: 0 | Pain—abdomen NOS, Any Grade, % [1, 4]: 21.74% | Pain—abdomen NOS, Any Grade, No. [1, 4]: 5 | Pain—abdomen NOS, Grade 3 or 4, % [1, 4]: 0.00% | Pain—abdomen NOS, Grade 3 or 4, No. [1, 4]: 0 | Pain—stomach, Any Grade, % [1, 4]: 13.04% | Pain—stomach, Any Grade, No. [1, 4]: 3 | Pain—stomach, Grade 3 or 4, % [1, 4]: 0.00% | Pain—stomach, Grade 3 or 4, No. [1, 4]: 0 | Vomiting, Any Grade, % [1, 4]: 56.52% | Vomiting, Any Grade, No. [1, 4]: 13 | Vomiting, Grade 3 or 4, % [1, 4]: 0.00% | Vomiting, Grade 3 or 4, No. [1, 4]: 0 | Decreased leukocytes, Any Grade, % [1, 5]: 47.8% | Fatigue, Any Grade, % [1, 5]: 65.2% | Hyperglycemia, Any Grade, % [1, 5]: 60.9% | Nausea, Any Grade, % [1, 5]: 65.2% | Vomiting, Any Grade, % [1, 5]: 56.5% | Number of DLTs ([1]; grade 4 hyperuricemia at dose level 4, 23 patients, 5 dose levels): one | AST, Grade 3 or 4, No. ([1]; human, in vivo): 0 | Anorexia, Any Grade, % ([1]; human, in vivo): 30.43% | Anorexia, Any Grade, No. ([1]; human, in vivo): 7 | Anorexia, Grade 3 or 4, % ([1]; human, in vivo): 0.00% | Anorexia, Grade 3 or 4, No. ([1]; human, in vivo): 0 | Constipation, Any Grade, % ([1]; human, in vivo): 13.04% | Constipation, Any Grade, No. ([1]; human, in vivo): 3 | Constipation, Grade 3 or 4, % ([1]; human, in vivo): 0.00% | Constipation, Grade 3 or 4, No. ([1]; human, in vivo): 0 | Decreased hemoglobin, Any Grade, % ([1]; human, in vivo): 43.48% | Decreased hemoglobin, Any Grade, No. ([1]; human, in vivo): 10 | Average Plasma Level (standard deviation) ([2]; dose level 1, target 25 mg/m^2/day, patients 1,2,3, steady state): 6.8 (1.6) μg/mL | Average Plasma Level (standard deviation) ([2]; dose level 2, target 50 mg/m^2/day, patients 4,5,6, steady state): 14.4 (2.5) μg/mL and 39.0 (6.8) μM | Average Plasma Level (standard deviation) ([2]; dose level 3, target 75 mg/m^2/day, patients 7-11, steady state): 11.5 (3.1) μg/mL and 31.1 (8.5) μM | Average Plasma Level (standard deviation) ([2]; dose level 4, target 100 mg/m^2/day, patients 12-17, steady state): 12.7 (6.1) μg/mL and 34.4 (16.5) μM | Average Plasma Level (standard deviation) ([2]; dose level 5, target 125 mg/m^2/day, patients 18-22, steady state): 12.1 (3.5) μg/mL and 32.8 (9.5) μM | Steady state plasma levels ([2]; observed in most patients): above 10 μM | Maintenance dose at which dose exposure plateau is reached ([2]; pediatric patients, steady state plasma levels): 50 mg/m^2/day | IC50 [3]: 25 µM | Doses inhibiting telomerase activity (telomerase): low micromolar
